According to patent US11807835B2, “Detergent compositions containing a stabilized enzyme by phosphonates” (ECOLAB USA INC., priority 2016, dated 2023):
Like-named read-outs stand apart in the source and are kept apart here.

What was measured:
[1] = test system: lipase; assay: Lipase activity retention in detergent use solution (4000 ppm, 5 GPG water; p-nitrophenyl valerate, TRIS buffer pH 8.0); format: biochemical; conditions: for Relative Lipase Enzyme Activity in a Use Solution of the All Ash Detergent Composition: Table 6F, 120º F.; for Relative Lipase Enzyme Activity: base formula
Method in brief: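 Lipase stability was measured in a detergent use solution under conditions mimicking presoak or manual warewash, with stirring in a water bath. Aliquots were taken over time and flash-frozen. Thawed samples were diluted in TRIS buffer at pH 8.0 and assayed with p-nitrophenyl valerate as substrate on a plate reader. Activity is reported as % retained relative to the time=0 sample.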

[2] = test system: enzyme (protease, amylase, lipase); assay: Overall effects of phosphonates on enzyme activity (Table 3); format: biochemical
Method in brief: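 Protease, amylase and lipase activity in detergent use solutions with varied phosphonate levels, 4000 ppm in 5 GPG water at 120° F., sampled up to 4 h and frozen at −80° C. before assay. Activity given as % retention relative to t=0 (100%).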

[3] = phosphonate 0.3 wt-%, use solution at 120° F., time 0 min
[4] = phosphonate 0.3 wt-%, use solution at 120° F., time 5 min
[5] = phosphonate 0.3 wt-%, use solution at 120° F., time 10 min
[6] = phosphonate 0.3 wt-%, use solution at 120° F., time 20 min
[7] = phosphonate 0.3 wt-%, use solution at 120° F., time 40 min
[8] = phosphonate 0.3 wt-%, use solution at 120° F., time 60 min
[9] = phosphonate 0.3 wt-%, use solution at 120° F., time 90 min
[10] = phosphonate 0.3 wt-%, use solution at 120° F., time 120 min
[11] = phosphonate 0.3 wt-%, use solution at 120° F., time 150 min
[12] = phosphonate 0.3 wt-%, use solution at 120° F., time 180 min
[13] = phosphonate 0.3 wt-%, use solution at 120° F., time 210 min
[14] = phosphonate 0.3 wt-%, use solution at 120° F., time 240 min
[15] = phosphonate 0.6 wt-%, use solution at 120º F., time 0 min
[16] = phosphonate 0.6 wt-%, use solution at 120º F., time 5 min
[17] = phosphonate 0.6 wt-%, use solution at 120º F., time 10 min
[18] = phosphonate 0.6 wt-%, use solution at 120º F., time 20 min
[19] = phosphonate 0.6 wt-%, use solution at 120º F., time 40 min
[20] = phosphonate 0.6 wt-%, use solution at 120º F., time 60 min
[21] = phosphonate 0.6 wt-%, use solution at 120º F., time 90 min
[22] = phosphonate 0.6 wt-%, use solution at 120º F., time 120 min
[23] = phosphonate 0.6 wt-%, use solution at 120º F., time 150 min
[24] = phosphonate 0.6 wt-%, use solution at 120º F., time 180 min
[25] = phosphonate 0.6 wt-%, use solution at 120º F., time 210 min
[26] = phosphonate 0.6 wt-%, use solution at 120º F., time 240 min
[27] = phosphonate at 0.1% elemental phosphorus, at 120º F. or at room temperature (as titled), time 0 min
[28] = phosphonate at 0.1% elemental phosphorus, at 120º F. or at room temperature (as titled), time 5 min
[29] = phosphonate at 0.1% elemental phosphorus, at 120º F. or at room temperature (as titled), time 10 min
[30] = phosphonate at 0.1% elemental phosphorus, at 120º F. or at room temperature (as titled), time 20 min
[31] = phosphonate at 0.1% elemental phosphorus, at 120º F. or at room temperature (as titled), time 40 min
[32] = phosphonate at 0.1% elemental phosphorus, at 120º F. or at room temperature (as titled), time 60 min
[33] = phosphonate at 0.1% elemental phosphorus, at 120º F. or at room temperature (as titled), time 90 min
[34] = phosphonate at 0.1% elemental phosphorus, at 120º F. or at room temperature (as titled), time 120 min
[35] = phosphonate at 0.1% elemental phosphorus, at 120º F. or at room temperature (as titled), time 150 min
[36] = phosphonate at 0.1% elemental phosphorus, at 120º F. or at room temperature (as titled), time 180 min
[37] = phosphonate at 0.1% elemental phosphorus, at 120º F. or at room temperature (as titled), time 210 min
[38] = phosphonate at 0.1% elemental phosphorus, at 120º F. or at room temperature (as titled), time 240 min

Diglycolamine phosphonate [DGAP]
Relative Lipase Enzyme Activity in a Use Solution of the All Ash Detergent Composition ([1]; all ash formula, phosphonate 0.3 wt-%, time 0 min): 100.00%
Relative Lipase Enzyme Activity in a Use Solution of the All Ash Detergent Composition ([1]; all ash formula, phosphonate 0.3 wt-%, time 5 min): 87.31%
Relative Lipase Enzyme Activity in a Use Solution of the All Ash Detergent Composition ([1]; all ash formula, phosphonate 0.3 wt-%, time 10 min): 76.38%
Relative Lipase Enzyme Activity in a Use Solution of the All Ash Detergent Composition ([1]; all ash formula, phosphonate 0.3 wt-%, time 20 min): 57.74%
Relative Lipase Enzyme Activity in a Use Solution of the All Ash Detergent Composition ([1]; all ash formula, phosphonate 0.3 wt-%, time 40 min): 40.00%
Relative Lipase Enzyme Activity in a Use Solution of the All Ash Detergent Composition ([1]; all ash formula, phosphonate 0.3 wt-%, time 60 min): 33.56%
Relative Lipase Enzyme Activity in a Use Solution of the All Ash Detergent Composition ([1]; all ash formula, phosphonate 0.3 wt-%, time 90 min): 25.59%
Relative Lipase Enzyme Activity in a Use Solution of the All Ash Detergent Composition ([1]; all ash formula, phosphonate 0.3 wt-%, time 120 min): 21.03%
Relative Lipase Enzyme Activity in a Use Solution of the All Ash Detergent Composition ([1]; all ash formula, phosphonate 0.3 wt-%, time 150 min): 17.27%
Relative Lipase Enzyme Activity in a Use Solution of the All Ash Detergent Composition ([1]; all ash formula, phosphonate 0.3 wt-%, time 180 min): 14.06%
Relative Lipase Enzyme Activity in a Use Solution of the All Ash Detergent Composition ([1]; all ash formula, phosphonate 0.3 wt-%, time 210 min): 12.18%
Relative Lipase Enzyme Activity in a Use Solution of the All Ash Detergent Composition ([1]; all ash formula, phosphonate 0.3 wt-%, time 240 min): 10.79%
lipase stability in all ash formula ([1]; all ash formula, versus same composition with PBTC or HEDP without amine(s), FIG. 6G): more stable
Relative Lipase Enzyme Activity [1, 3]: 100.00%
Relative Lipase Enzyme Activity [1, 4]: 83.54%
Relative Lipase Enzyme Activity [1, 5]: 88.25%
Relative Lipase Enzyme Activity [1, 6]: 77.15%
Relative Lipase Enzyme Activity [1, 7]: 62.99%
Relative Lipase Enzyme Activity [1, 8]: 52.84%
Relative Lipase Enzyme Activity [1, 9]: 43.46%
Relative Lipase Enzyme Activity [1, 10]: 35.40%
Relative Lipase Enzyme Activity [1, 11]: 31.10%
Relative Lipase Enzyme Activity [1, 12]: 22.42%
Relative Lipase Enzyme Activity [1, 13]: 24.78%
Relative Lipase Enzyme Activity [1, 14]: 22.08%
Relative Lipase Enzyme Activity [1, 15]: 100.00%
Relative Lipase Enzyme Activity [1, 16]: 95.36%
Relative Lipase Enzyme Activity [1, 17]: 100.58%
Relative Lipase Enzyme Activity [1, 18]: 94.94%
Relative Lipase Enzyme Activity [1, 19]: 93.85%
Relative Lipase Enzyme Activity [1, 20]: 86.18%
Relative Lipase Enzyme Activity [1, 21]: 76.99%
Relative Lipase Enzyme Activity [1, 22]: 71.87%
Relative Lipase Enzyme Activity [1, 23]: 72.77%
Relative Lipase Enzyme Activity [1, 24]: 64.17%
Relative Lipase Enzyme Activity [1, 25]: 63.68%
Relative Lipase Enzyme Activity [1, 26]: 56.85%
Relative Lipase Enzyme Activity [1, 27]: 100.00%
Relative Lipase Enzyme Activity [1, 28]: 88.13%
Relative Lipase Enzyme Activity [1, 29]: 80.42%
Relative Lipase Enzyme Activity [1, 30]: 74.76%
Relative Lipase Enzyme Activity [1, 31]: 49.43%
Relative Lipase Enzyme Activity [1, 32]: 46.05%
Relative Lipase Enzyme Activity [1, 33]: 39.53%
Relative Lipase Enzyme Activity [1, 34]: 34.69%
Relative Lipase Enzyme Activity [1, 35]: 28.57%
Relative Lipase Enzyme Activity [1, 36]: 25.49%
Relative Lipase Enzyme Activity [1, 37]: 24.18%
Relative Lipase Enzyme Activity [1, 38]: 22.78%
Stability (effects on enzyme activity) ([2]; overall effect of the phosphonate on enzyme activity in the detergent use solution): Yes

Monoethanolamine phosphonate [MEAP]
Relative Lipase Enzyme Activity [1, 3]: 100.00%
Relative Lipase Enzyme Activity [1, 4]: 84.99%
Relative Lipase Enzyme Activity [1, 5]: 78.55%
Relative Lipase Enzyme Activity [1, 6]: 58.36%
Relative Lipase Enzyme Activity [1, 7]: 39.07%
Relative Lipase Enzyme Activity [1, 8]: 31.84%
Relative Lipase Enzyme Activity [1, 9]: 26.97%
Relative Lipase Enzyme Activity [1, 10]: 22.23%
Relative Lipase Enzyme Activity [1, 11]: 20.19%
Relative Lipase Enzyme Activity [1, 12]: 19.50%
Relative Lipase Enzyme Activity [1, 13]: 16.46%
Relative Lipase Enzyme Activity [1, 14]: 15.76%
Relative Lipase Enzyme Activity [1, 15]: 100.00%
Relative Lipase Enzyme Activity [1, 16]: 95.37%
Relative Lipase Enzyme Activity [1, 17]: 90.69%
Relative Lipase Enzyme Activity [1, 18]: 83.63%
Relative Lipase Enzyme Activity [1, 19]: 72.89%
Relative Lipase Enzyme Activity [1, 20]: 69.90%
Relative Lipase Enzyme Activity [1, 21]: 65.92%
Relative Lipase Enzyme Activity [1, 22]: 59.18%
Relative Lipase Enzyme Activity [1, 23]: 53.85%
Relative Lipase Enzyme Activity [1, 24]: 51.72%
Relative Lipase Enzyme Activity [1, 25]: 47.03%
Relative Lipase Enzyme Activity [1, 26]: 42.96%
Relative Lipase Enzyme Activity [1, 27]: 100.00%
Relative Lipase Enzyme Activity [1, 28]: 81.36%
Relative Lipase Enzyme Activity [1, 29]: 84.98%
Relative Lipase Enzyme Activity [1, 30]: 71.62%
Relative Lipase Enzyme Activity [1, 31]: 57.03%
Relative Lipase Enzyme Activity [1, 32]: 47.80%
Relative Lipase Enzyme Activity [1, 33]: 41.02%
Relative Lipase Enzyme Activity [1, 34]: 31.46%
Relative Lipase Enzyme Activity [1, 35]: 28.32%
Relative Lipase Enzyme Activity [1, 36]: 20.93%
Relative Lipase Enzyme Activity [1, 37]: 23.04%
Relative Lipase Enzyme Activity [1, 38]: 20.87%
Stability (effects on enzyme activity) [2]: Yes
